In the kinase profiling compilation of Christmann-Franck et al. (2016):
pIC50, pKd: −log10 of the molar value.

Legend:
[1] = target: MAP3K7 (human) (UniProt O43318); assay: radiometric filter-binding kinase assay
[2] = system: ABL1 (human), P00519 [M351T]; assay: KINOMEscan competition binding
[3] = target: AKT1 (human) (UniProt P31749); assay: KINOMEscan competition binding
[4] = target: BLK (human) (UniProt P51451); assay: KINOMEscan competition binding
[5] = target: BRSK2 (human) (UniProt Q8IWQ3); assay: KINOMEscan competition binding
[6] = target: CAMK2G (human) (UniProt Q13555); assay: KINOMEscan competition binding
[7] = target: CSNK1D (human) (UniProt P48730); assay: KINOMEscan competition binding
[8] = target: DAPK1 (human) (UniProt P53355); assay: KINOMEscan competition binding
[9] = target: DAPK3 (human) (UniProt O43293); assay: KINOMEscan competition binding
[10] = system: EGFR (human), P00533 [752-759 del]; assay: KINOMEscan competition binding
[11] = target: EPHB6 (human) (UniProt O15197); assay: KINOMEscan competition binding
[12] = target: FES (human) (UniProt P07332); assay: KINOMEscan competition binding
[13] = target: FLT1 (human) (UniProt P17948); assay: KINOMEscan competition binding
[14] = target: GRK1 (human) (UniProt Q15835); assay: KINOMEscan competition binding
[15] = target: GSK3A (human) (UniProt P49840); assay: KINOMEscan competition binding
[16] = target: HIPK4 (human) (UniProt Q8NE63); assay: KINOMEscan competition binding
[17] = target: ICK (human) (UniProt Q9UPZ9); assay: KINOMEscan competition binding
[18] = system: KIT (human), P10721 [D816H]; assay: KINOMEscan competition binding
[19] = target: LCK (human) (UniProt P06239); assay: KINOMEscan competition binding
[20] = target: LIMK1 (human) (UniProt P53667); assay: KINOMEscan competition binding
[21] = target: MAP2K7 (human) (UniProt O14733); assay: KINOMEscan competition binding
[22] = target: MAP3K15 (human) (UniProt Q6ZN16); assay: KINOMEscan competition binding
[23] = target: MAPK10 (human) (UniProt P53779); assay: KINOMEscan competition binding
[24] = target: MAPK4 (human) (UniProt P31152); assay: KINOMEscan competition binding
[25] = target: MARK4 (human) (UniProt Q96L34); assay: KINOMEscan competition binding
[26] = target: MKNK1 (human) (UniProt Q9BUB5); assay: KINOMEscan competition binding
[27] = target: MST1R (human) (UniProt Q04912); assay: KINOMEscan competition binding
[28] = target: MYLK (human) (UniProt Q15746); assay: KINOMEscan competition binding
[29] = target: PAK3 (human) (UniProt O75914); assay: KINOMEscan competition binding
[30] = system: PIK3CA (human), P42336 [E542K]; assay: KINOMEscan competition binding
[31] = system: PIK3CA (human), P42336 [M1043I]; assay: KINOMEscan competition binding
[32] = target: PIM1 (human) (UniProt P11309); assay: KINOMEscan competition binding
[33] = target: PKN3 (M.tuberculosis) (UniProt Q6P5Z2); assay: KINOMEscan competition binding
[34] = target: PRKACA (human) (UniProt P17612); assay: KINOMEscan competition binding
[35] = target: PRKD1 (human) (UniProt Q15139); assay: KINOMEscan competition binding
[36] = target: PRPF4B (human) (UniProt Q13523); assay: KINOMEscan competition binding
[37] = target: ROS1 (human) (UniProt P08922); assay: KINOMEscan competition binding
[38] = target: SIK1 (human) (UniProt P57059); assay: KINOMEscan competition binding
[39] = target: STK32B (human) (UniProt Q9NY57); assay: KINOMEscan competition binding
[40] = target: TGFBR2 (human) (UniProt P37173); assay: KINOMEscan competition binding
[41] = target: KIT (human) (UniProt P10721)

Sequence of MAPK10 (human) (P53779 whole entry, looked up): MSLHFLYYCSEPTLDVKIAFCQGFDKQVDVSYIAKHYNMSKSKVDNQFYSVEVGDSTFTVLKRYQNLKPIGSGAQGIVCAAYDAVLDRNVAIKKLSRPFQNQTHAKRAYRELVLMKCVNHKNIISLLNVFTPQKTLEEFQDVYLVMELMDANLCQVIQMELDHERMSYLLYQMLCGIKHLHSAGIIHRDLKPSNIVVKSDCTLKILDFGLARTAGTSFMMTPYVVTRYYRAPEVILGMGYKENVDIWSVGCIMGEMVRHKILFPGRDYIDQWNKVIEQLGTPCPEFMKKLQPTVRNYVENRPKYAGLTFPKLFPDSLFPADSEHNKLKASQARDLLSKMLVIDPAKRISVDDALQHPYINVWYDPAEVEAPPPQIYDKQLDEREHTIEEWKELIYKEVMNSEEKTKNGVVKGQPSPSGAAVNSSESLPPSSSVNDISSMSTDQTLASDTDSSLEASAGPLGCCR
Sequence of KIT (human), P10721 [D816H] (P10721 whole entry D816H, looked up): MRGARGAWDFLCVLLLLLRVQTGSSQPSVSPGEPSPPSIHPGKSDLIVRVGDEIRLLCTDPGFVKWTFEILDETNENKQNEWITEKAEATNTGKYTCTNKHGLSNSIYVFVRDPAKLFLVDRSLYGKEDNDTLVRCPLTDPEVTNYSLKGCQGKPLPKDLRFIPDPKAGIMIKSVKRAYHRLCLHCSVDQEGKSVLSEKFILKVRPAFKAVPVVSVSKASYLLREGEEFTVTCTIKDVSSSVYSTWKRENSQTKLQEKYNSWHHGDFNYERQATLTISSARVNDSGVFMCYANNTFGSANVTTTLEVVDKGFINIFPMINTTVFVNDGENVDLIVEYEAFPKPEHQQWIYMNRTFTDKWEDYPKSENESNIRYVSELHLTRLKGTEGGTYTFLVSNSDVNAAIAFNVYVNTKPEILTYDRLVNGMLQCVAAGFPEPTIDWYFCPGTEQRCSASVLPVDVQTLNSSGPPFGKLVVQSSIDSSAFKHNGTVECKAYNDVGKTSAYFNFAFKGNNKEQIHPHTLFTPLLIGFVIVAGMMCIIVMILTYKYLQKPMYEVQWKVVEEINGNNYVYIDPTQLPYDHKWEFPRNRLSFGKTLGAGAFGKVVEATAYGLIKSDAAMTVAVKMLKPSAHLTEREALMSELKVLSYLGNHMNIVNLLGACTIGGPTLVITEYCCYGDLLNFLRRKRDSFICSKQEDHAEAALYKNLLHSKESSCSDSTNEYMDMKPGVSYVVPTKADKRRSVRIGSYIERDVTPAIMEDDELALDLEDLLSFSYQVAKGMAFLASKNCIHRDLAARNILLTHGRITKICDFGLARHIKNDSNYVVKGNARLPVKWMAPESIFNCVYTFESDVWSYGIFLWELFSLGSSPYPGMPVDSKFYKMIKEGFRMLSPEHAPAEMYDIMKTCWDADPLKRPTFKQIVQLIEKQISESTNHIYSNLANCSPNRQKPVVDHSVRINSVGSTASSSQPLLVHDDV
Sequence of STK32B (human) (Q9NY57 whole entry, looked up): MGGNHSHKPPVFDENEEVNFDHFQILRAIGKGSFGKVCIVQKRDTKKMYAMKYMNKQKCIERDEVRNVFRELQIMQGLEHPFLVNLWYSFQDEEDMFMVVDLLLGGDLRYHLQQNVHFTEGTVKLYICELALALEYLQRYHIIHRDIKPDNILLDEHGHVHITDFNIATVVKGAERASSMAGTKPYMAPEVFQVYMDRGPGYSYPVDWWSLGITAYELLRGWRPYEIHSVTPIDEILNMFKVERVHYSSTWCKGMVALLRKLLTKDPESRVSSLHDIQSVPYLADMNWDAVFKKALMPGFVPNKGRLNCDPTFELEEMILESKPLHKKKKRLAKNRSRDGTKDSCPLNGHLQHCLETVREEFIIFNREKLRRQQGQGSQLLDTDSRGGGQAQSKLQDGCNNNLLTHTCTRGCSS
Sequence of CAMK2G (human) (Q13555 whole entry, looked up): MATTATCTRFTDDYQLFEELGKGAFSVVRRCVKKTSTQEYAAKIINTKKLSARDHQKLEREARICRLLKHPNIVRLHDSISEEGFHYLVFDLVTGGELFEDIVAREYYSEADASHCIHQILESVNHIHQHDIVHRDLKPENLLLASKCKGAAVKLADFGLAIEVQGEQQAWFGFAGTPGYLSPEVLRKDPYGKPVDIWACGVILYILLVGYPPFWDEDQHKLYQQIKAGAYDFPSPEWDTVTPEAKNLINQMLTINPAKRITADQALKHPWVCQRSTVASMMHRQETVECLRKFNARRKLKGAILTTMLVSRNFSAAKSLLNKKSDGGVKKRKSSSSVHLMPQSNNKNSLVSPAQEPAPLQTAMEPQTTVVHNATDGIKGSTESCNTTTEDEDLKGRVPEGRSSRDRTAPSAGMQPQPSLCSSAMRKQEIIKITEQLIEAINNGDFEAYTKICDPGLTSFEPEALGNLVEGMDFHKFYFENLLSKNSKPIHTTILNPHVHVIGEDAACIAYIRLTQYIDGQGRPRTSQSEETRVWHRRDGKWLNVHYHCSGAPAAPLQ
Sequence of ROS1 (human) (P08922 whole entry, looked up): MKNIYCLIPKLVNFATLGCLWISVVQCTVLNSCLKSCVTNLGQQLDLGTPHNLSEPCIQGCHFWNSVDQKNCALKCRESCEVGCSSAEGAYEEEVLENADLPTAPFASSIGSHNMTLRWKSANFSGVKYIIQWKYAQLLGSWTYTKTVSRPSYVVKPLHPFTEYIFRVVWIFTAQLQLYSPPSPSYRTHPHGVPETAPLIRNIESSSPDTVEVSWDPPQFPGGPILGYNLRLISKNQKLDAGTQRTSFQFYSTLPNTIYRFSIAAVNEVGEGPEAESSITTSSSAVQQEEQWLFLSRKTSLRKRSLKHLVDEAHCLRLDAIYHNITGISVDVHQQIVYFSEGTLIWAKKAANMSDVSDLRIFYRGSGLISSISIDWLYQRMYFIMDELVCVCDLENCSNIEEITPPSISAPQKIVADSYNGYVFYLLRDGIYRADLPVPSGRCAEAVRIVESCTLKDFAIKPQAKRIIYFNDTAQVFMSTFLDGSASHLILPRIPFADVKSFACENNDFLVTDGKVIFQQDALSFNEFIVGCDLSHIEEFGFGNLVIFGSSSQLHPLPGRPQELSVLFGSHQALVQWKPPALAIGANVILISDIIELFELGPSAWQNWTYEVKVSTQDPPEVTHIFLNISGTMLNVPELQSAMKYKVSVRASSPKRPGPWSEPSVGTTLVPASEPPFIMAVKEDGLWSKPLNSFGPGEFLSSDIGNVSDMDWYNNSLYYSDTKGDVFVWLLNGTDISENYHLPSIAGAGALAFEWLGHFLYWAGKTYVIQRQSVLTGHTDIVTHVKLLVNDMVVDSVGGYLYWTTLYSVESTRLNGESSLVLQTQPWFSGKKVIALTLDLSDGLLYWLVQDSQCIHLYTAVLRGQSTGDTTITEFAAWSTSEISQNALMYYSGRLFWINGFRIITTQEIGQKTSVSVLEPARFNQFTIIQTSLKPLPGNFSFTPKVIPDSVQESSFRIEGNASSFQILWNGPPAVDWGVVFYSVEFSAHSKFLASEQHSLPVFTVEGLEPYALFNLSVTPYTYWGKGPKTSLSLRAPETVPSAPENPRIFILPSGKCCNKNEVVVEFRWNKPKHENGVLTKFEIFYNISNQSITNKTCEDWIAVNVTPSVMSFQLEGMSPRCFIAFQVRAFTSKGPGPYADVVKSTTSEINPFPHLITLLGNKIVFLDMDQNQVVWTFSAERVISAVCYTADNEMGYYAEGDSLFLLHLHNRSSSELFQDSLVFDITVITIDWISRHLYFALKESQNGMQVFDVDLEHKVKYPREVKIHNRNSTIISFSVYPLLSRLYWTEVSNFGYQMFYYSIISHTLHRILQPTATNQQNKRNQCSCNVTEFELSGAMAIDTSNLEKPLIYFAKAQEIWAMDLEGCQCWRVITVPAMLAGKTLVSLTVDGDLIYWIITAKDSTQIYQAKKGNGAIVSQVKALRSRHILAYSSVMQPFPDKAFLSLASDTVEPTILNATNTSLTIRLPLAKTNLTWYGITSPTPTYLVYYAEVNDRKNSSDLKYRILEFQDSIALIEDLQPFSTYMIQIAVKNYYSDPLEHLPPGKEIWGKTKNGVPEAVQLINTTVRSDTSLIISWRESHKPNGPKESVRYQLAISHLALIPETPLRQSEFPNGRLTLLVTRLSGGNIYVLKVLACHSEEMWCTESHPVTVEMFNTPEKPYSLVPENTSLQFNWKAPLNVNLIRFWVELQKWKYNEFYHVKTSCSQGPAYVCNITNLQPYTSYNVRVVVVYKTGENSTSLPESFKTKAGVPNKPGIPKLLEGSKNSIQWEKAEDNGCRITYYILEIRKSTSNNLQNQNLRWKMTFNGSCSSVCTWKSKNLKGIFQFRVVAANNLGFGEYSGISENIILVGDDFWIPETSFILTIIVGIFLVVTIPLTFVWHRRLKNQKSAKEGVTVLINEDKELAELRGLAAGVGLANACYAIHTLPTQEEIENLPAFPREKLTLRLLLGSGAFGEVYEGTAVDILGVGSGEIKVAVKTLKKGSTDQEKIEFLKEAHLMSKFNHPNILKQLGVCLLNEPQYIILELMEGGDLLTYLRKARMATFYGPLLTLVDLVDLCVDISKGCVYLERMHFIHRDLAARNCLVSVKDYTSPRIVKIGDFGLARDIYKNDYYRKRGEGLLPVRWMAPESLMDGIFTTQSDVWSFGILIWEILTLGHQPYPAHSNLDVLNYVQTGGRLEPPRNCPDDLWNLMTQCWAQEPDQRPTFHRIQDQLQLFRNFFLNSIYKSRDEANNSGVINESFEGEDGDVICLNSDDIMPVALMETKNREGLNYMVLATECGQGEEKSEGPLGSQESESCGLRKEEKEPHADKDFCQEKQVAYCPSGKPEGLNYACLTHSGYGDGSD
Sequence of PIM1 (human) (P11309 whole entry, looked up): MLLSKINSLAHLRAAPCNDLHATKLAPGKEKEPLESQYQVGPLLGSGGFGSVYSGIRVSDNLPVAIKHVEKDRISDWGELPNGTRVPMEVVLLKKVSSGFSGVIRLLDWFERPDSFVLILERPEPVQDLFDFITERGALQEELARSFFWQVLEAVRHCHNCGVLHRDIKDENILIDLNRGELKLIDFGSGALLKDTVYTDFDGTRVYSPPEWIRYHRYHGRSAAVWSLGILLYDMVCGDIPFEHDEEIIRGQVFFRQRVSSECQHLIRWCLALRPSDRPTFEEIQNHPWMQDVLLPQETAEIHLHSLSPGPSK

Cc1cc(NC(=O)c2cccc(NC(=O)/C=C/CN(C)C)c2)ccc1Nc1nccc(-c2cccnc2)n1
pIC50 [1]: 5.11 | kinase still bound, per cent of control ([2]; compound 1.0 µM): 81% | kinase still bound, per cent of control ([3]; compound 1.0 µM): 100% | kinase still bound, per cent of control ([4]; compound 1.0 µM): 65% | kinase still bound, per cent of control ([5]; compound 1.0 µM): 99% | kinase still bound, per cent of control ([6]; compound 1.0 µM): 100% | kinase still bound, per cent of control ([7]; compound 1.0 µM): 18% | kinase still bound, per cent of control ([8]; compound 1.0 µM): 100% | kinase still bound, per cent of control ([9]; compound 1.0 µM): 100% | kinase still bound, per cent of control ([10]; compound 1.0 µM): 79% | kinase still bound, per cent of control ([11]; compound 1.0 µM): 71% | kinase still bound, per cent of control ([12]; compound 1.0 µM): 89% | kinase still bound, per cent of control ([13]; compound 1.0 µM): 100% | kinase still bound, per cent of control ([14]; compound 1.0 µM): 100% | kinase still bound, per cent of control ([15]; compound 1.0 µM): 92% | kinase still bound, per cent of control ([16]; compound 1.0 µM): 4% | kinase still bound, per cent of control ([17]; compound 1.0 µM): 92% | kinase still bound, per cent of control ([18]; compound 1.0 µM): 68% | kinase still bound, per cent of control ([19]; compound 1.0 µM): 100% | kinase still bound, per cent of control ([20]; compound 1.0 µM): 74% | kinase still bound, per cent of control ([21]; compound 1.0 µM): 59% | kinase still bound, per cent of control ([22]; compound 1.0 µM): 82% | kinase still bound, per cent of control ([23]; compound 1.0 µM): 0% | kinase still bound, per cent of control ([24]; compound 1.0 µM): 81% | kinase still bound, per cent of control ([25]; compound 1.0 µM): 97% | kinase still bound, per cent of control ([26]; compound 1.0 µM): 81% | kinase still bound, per cent of control ([27]; compound 1.0 µM): 100% | kinase still bound, per cent of control ([28]; compound 1.0 µM): 93% | kinase still bound, per cent of control ([29]; compound 1.0 µM): 100% | kinase still bound, per cent of control ([30]; compound 1.0 µM): 100% | kinase still bound, per cent of control ([31]; compound 1.0 µM): 94% | kinase still bound, per cent of control ([32]; compound 1.0 µM): 100% | kinase still bound, per cent of control ([33]; compound 1.0 µM): 100% | kinase still bound, per cent of control ([34]; compound 1.0 µM): 100% | kinase still bound, per cent of control ([35]; compound 1.0 µM): 100% | kinase still bound, per cent of control ([36]; compound 1.0 µM): 100% | kinase still bound, per cent of control ([37]; compound 1.0 µM): 90% | kinase still bound, per cent of control ([38]; compound 1.0 µM): 100% | kinase still bound, per cent of control ([39]; compound 1.0 µM): 90% | kinase still bound, per cent of control ([40]; compound 1.0 µM): 64% | pIC50 [41]: < 5.00

Cc1ccc(NC(=O)c2ccc(NC(=O)/C=C/CN(C)C)cc2)cc1Nc1nccc(-c2cccnc2)n1
kinase still bound, per cent of control ([2]; compound 10.0 µM): 47% | kinase still bound, per cent of control ([3]; compound 10.0 µM): 100% | kinase still bound, per cent of control ([4]; compound 10.0 µM): 60% | kinase still bound, per cent of control ([5]; compound 10.0 µM): 88% | kinase still bound, per cent of control ([6]; compound 10.0 µM): 95% | kinase still bound, per cent of control ([7]; compound 10.0 µM): 54% | kinase still bound, per cent of control ([8]; compound 10.0 µM): 72% | kinase still bound, per cent of control ([9]; compound 10.0 µM): 75% | kinase still bound, per cent of control ([10]; compound 10.0 µM): 54% | kinase still bound, per cent of control ([11]; compound 10.0 µM): 26% | kinase still bound, per cent of control ([12]; compound 10.0 µM): 100% | kinase still bound, per cent of control ([13]; compound 10.0 µM): 91% | kinase still bound, per cent of control ([14]; compound 10.0 µM): 100% | kinase still bound, per cent of control ([15]; compound 10.0 µM): 100% | kinase still bound, per cent of control ([16]; compound 10.0 µM): 18% | kinase still bound, per cent of control ([17]; compound 10.0 µM): 82% | kinase still bound, per cent of control ([18]; compound 10.0 µM): 29% | kinase still bound, per cent of control ([19]; compound 10.0 µM): 54% | kinase still bound, per cent of control ([20]; compound 10.0 µM): 85% | kinase still bound, per cent of control ([21]; compound 10.0 µM): 100% | kinase still bound, per cent of control ([22]; compound 10.0 µM): 92% | pKd [23]: 7.00 | kinase still bound, per cent of control ([23]; compound 10.0 µM): 0.25% | kinase still bound, per cent of control ([24]; compound 10.0 µM): 100% | kinase still bound, per cent of control ([25]; compound 10.0 µM): 77% | kinase still bound, per cent of control ([26]; compound 10.0 µM): 88% | kinase still bound, per cent of control ([27]; compound 10.0 µM): 100% | kinase still bound, per cent of control ([28]; compound 10.0 µM): 73% | kinase still bound, per cent of control ([29]; compound 10.0 µM): 68% | kinase still bound, per cent of control ([30]; compound 10.0 µM): 100% | kinase still bound, per cent of control ([31]; compound 10.0 µM): 100% | kinase still bound, per cent of control ([32]; compound 10.0 µM): 69% | kinase still bound, per cent of control ([33]; compound 10.0 µM): 86% | kinase still bound, per cent of control ([34]; compound 10.0 µM): 100% | kinase still bound, per cent of control ([35]; compound 10.0 µM): 100% | kinase still bound, per cent of control ([36]; compound 10.0 µM): 100% | kinase still bound, per cent of control ([37]; compound 10.0 µM): 100% | kinase still bound, per cent of control ([38]; compound 10.0 µM): 100% | kinase still bound, per cent of control ([39]; compound 10.0 µM): 100% | kinase still bound, per cent of control ([40]; compound 10.0 µM): 100%
